{
  "source": "patent US20050107289A1",
  "about": "“Anti-microbial peptides and compositions” (priority 2001, published 2005)",
  "key": {"H. influenzae ATCC 49247": {"tested_on": "H. influenzae ATCC 49247", "assay": "microbe, parasite or virus in culture", "format": "cell-based, Hemophilus influenzae", "settings": "for MIC: Haemophilus influenzae", "protocol": "(§1) The antimicrobial activity of the peptides was determined using a broth dilution assay essentially as descried in the guidelines of the National Committee for […] (NCCLS) [National Committee for Clinical Laboratory Standards. Methods for dilution antimicrobial susceptibility tests for bacteria that grow aerobically. Fourth edition. Approved Standard (1997). Document M7-A4. […] The microdilution method has the advantages of requiring less amount of peptide for each assay and the possibility of multiple simultaneous inoculations and was used in most studies. Several of the strains of bacteria tested are further described in Table 3.\n(§2) Preparation of peptide solutions. Stock peptide solutions were prepared in 5% DMSO in aq. sucrose (9%). Determination of peptide concentrations was done by quantitative HPLC analysis using known concentrations of internal standards and/or by measuring UV absorption of tryptophane-containing peptide solutions in H2O (λ=280 εTrp: 5690). Serial 2-fold dilutions were made in the above DMSO/aq. sucrose (9%) mixture with concentrations ranging approximately 400-2 μg/ml and aliquots were dispensed in test tubes (100 μl) for the macrodilution test or in microtiter plates (20 μl) for the microdilution assays.\n(§3) Inoculum preparation. Overnight cultures of different microorganisms grown in suitable media were diluted 4000 times to an approximate inoculum size of 2.5×10^5 cfu/ml.\n(§4) Macrodilution method. Macrodilution methods were performed using procedures similar to those described in the National Committee for Clinical Laboratory Standards. Methods for dilution antimicrobial susceptibility tests for bacteria that grow aerobically. Fourth edition. Approved Standard (1997). Document M7-A4. (NCCLS,Villanova, Pa., 1997). Two ml aliquots of the above inoculum were dispensed to test tubes containing different peptide solutions.\n(§5) Microdilution method. Microdilution methods were performed using procedures similar to those described in the National Committee for Clinical Laboratory Standards. Methods for dilution antimicrobial susceptibility tests for bacteria that grow aerobically. Fourth edition. Approved Standard (1997). Document M7-A4."}, "E. faecium SP180": {"tested_on": "E. faecium SP180", "assay": "microbe, parasite or virus in culture", "format": "cell-based, Enterococcus faecium", "settings": "for MIC: Enterococcus faecium, SP180, read-out: E. faecium SP180 MIC", "protocol": "as §1, §2, §3, §4, §5"}, "[1]": {"tested_on": "vancomycin-resistant Enterococus faecalis (VRE)(ATCC 51575)", "format": "cell-based, Enterococcus faecalis", "parameters": "key to VRE (in vitro activity): peptide concentration in μg/ml (broth dilution assay)", "settings": "Table 9; media c: Brain Heart Infusion (BHI)", "in_short": "(§6)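 Peptide activity was measured by NCCLS M7-A4 broth dilution, mostly as microdilution with some macrodilution. Serial 2-fold dilutions, approximately 400-2 μg/ml stock range, were made in 5% DMSO/9% aq. sucrose. Overnight cultures were diluted 4000-fold to about 2.5×10^5 cfu/ml inoculum.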"}, "[2]": {"tested_on": "S. aureus (MRSA) ATCC 33591", "format": "cell-based, Staphylococcus aureus", "settings": "Table 9; media b: cation adjusted Meuller Hinton broth (MHBII)", "in_short": "as §6"}, "[3]": {"tested_on": "E. coli (EL744) K12 (tolC::kan)", "assay": "microbe, parasite or virus in culture", "format": "cell-based, Escherichia coli", "settings": "for MIC: Escherichia coli, read-out: E. coli (EL744) K12 (tolC::kan) MIC; for E. coli (EL744) K12 (tolC::kan) MIC: MHII broth", "protocol": "as §1, §2, §3, §4, §5"}, "E. coli (K12)": {"tested_on": "E. coli (K12)", "assay": "microbe, parasite or virus in culture", "format": "cell-based, Escherichia coli", "settings": "for MIC: Escherichia coli, read-out: E. coli (K12) MIC", "protocol": "as §1, §2, §3, §4, §5"}, "murine red blood cells": {"tested_on": "murine red blood cells", "assay": "Red blood cell hemolysis", "format": "cell-based, mouse", "parameters": "RBC Hemolysis (HD50): unit not given here", "in_short": "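Hemolysis read as A560 of supernatant, scaled between saline (0%) and 1% Triton X-100 (100%) controls; peptides were serially diluted onto 5% murine red cells in saline plus 10% FBS and incubated 30 min at 37° C.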"}, "S. aureus ATCC 33592": {"tested_on": "S. aureus ATCC 33592", "assay": "microbe, parasite or virus in culture", "format": "cell-based, Staphylococcus aureus", "settings": "for MIC: Staphylococcus aureus, ATCC33592, read-out: S. aureus ATCC 33592 MIC", "protocol": "as §1, §2, §3, §4, §5"}, "E. faecalis ATCC 51299": {"tested_on": "E. faecalis ATCC 51299", "assay": "microbe, parasite or virus in culture", "format": "cell-based, Enterococcus faecalis", "settings": "for MIC: Enterococcus faecalis, ATCC51299, read-out: E. faecalis ATCC 51299 MIC", "protocol": "as §1, §2, §3, §4, §5"}, "[4]": {"tested_on": "S. aureus (MRSA) (ATCC No. 33592)", "assay": "Time-killing curve, S. aureus MRSA ATCC 33592", "format": "cell-based, Staphylococcus aureus", "protocol": "The speed at which several of the cyclic peptides of the invention kill E. coli JM 109 (DE3), Enterococcus faecium SP 180 and S. aureus (MRSA) (ATCC No. 33591 and 33592) was further tested at room temperature and/or at 37° C. A lower temperature tends to enrich the bacterial cultures for mature bacteria because the bacteria are not growing quickly. […] The presence or absence of immature bacteria in the culture may influence the rate at which the bacteria are killed, because immature bacteria tend to be more susceptible to many forms of antibiotics.\nFIGS. 9 and 10 illustrate the time course for killing S. aureus (MRSA) (ATCC No. 33592) with varying concentrations of cyclo[KSKWLWLW] cyclic peptide (SEQ ID NO:12) at room temperature and at 37° C. […] This may be due to growth of a few survivors after the residual cyclic peptide within the culture has been exhausted because the amount of peptide employed in that assay was below the MIC value."}, "[5]": {"settings": "Human; cited from earlier work"}},
  "note": "Where a name gives a salt, the structure may show the parent alone. Read-outs that look alike come from different tables or passages of the source. Non-standard residues stand in square brackets, D forms with d. Residues, ends and D or L forms follow the SMILES beside them.",
  "data": [
    {"smiles": "NC[C@H]1O[C@H](O[C@H]2[C@H](O)[C@@H](O[C@H]3O[C@H](CO)[C@@H](O)[C@H](N)[C@H]3O)[C@H](N)C[C@@H]2N)[C@H](O)[C@@H](O)[C@@H]1O", "note": "[Kanamycin, reference compound]", "values": [
      {"measurement": "MIC", "setting": "H. influenzae ATCC 49247; ATCC49247, HTM, read-out: H. influenzae ATCC 49247 MIC", "value": 4, "unit": "µg/mL"},
      {"measurement": "MIC", "setting": "E. faecium SP180", "value": "> 128", "unit": "µg/mL"},
      {"measurement": "VRE (in vitro activity)", "setting": "[1]", "value": ">600"},
      {"measurement": "MRSA (in vitro activity)", "setting": "[2]", "value": 150},
      {"measurement": "MIC", "setting": "[3]", "value": "> 128", "unit": "µg/mL"},
      {"measurement": "MIC", "setting": "E. coli (K12); MHII broth", "value": 4, "unit": "µg/mL"},
      {"measurement": "RBC Hemolysis (HD50)", "setting": "murine red blood cells; mouse, 30 min", "value": ">600"},
      {"measurement": "MIC", "setting": "S. aureus ATCC 33592", "value": "> 128", "unit": "µg/mL"},
      {"measurement": "MIC", "setting": "E. faecalis ATCC 51299", "value": "> 128", "unit": "µg/mL"}
    ]},
    {"smiles": "CC(C)C[C@H]1NC(=O)[C@H](CCCCN)NC(=O)[C@@H](CCCCN)NC(=O)[C@H](Cc2c[nH]c3ccccc23)NC(=O)[C@@H](CC(C)C)NC(=O)[C@H](Cc2c[nH]c3ccccc23)NC1=O", "note": "[[KKLWLW]-HCl, cyclo-(D-Lys-Lys-D-Leu-Trp-D-Leu-Trp)] (cyclo(K[dL]W[dL]W[dK]))", "values": [
      {"measurement": "H. influenzae ATCC 49247 MIC", "setting": "H. influenzae ATCC 49247; ATCC 49247", "value": ">128", "unit": "µg/mL"},
      {"measurement": "E. faecium SP180 MIC", "setting": "E. faecium SP180; SP180", "value": 16, "unit": "µg/mL"},
      {"measurement": "E. coli (EL744) K12 (tolC::kan) MIC", "setting": "[3]", "value": 32, "unit": "µg/mL"},
      {"measurement": "E. coli (K12) MIC", "setting": "E. coli (K12); K12", "value": ">128", "unit": "µg/mL"},
      {"measurement": "S. aureus ATCC 33592 MIC", "setting": "S. aureus ATCC 33592; ATCC 33592", "value": 32, "unit": "µg/mL"},
      {"measurement": "E. faecalis ATCC 51299 MIC", "setting": "E. faecalis ATCC 51299; ATCC 51299", "value": ">128", "unit": "µg/mL"}
    ]},
    {"smiles": "CC1(C)S[C@@H]2[C@H](NC(=O)Cc3ccccc3)C(=O)N2[C@H]1C(=O)O", "note": "[Penicillin G, reference compound]", "values": [
      {"measurement": "H. influenzae ATCC 49247 MIC", "setting": "H. influenzae ATCC 49247; HTM", "value": 4, "unit": "µg/mL"},
      {"measurement": "E. faecium SP180 MIC", "setting": "E. faecium SP180; BHI broth", "value": 128, "unit": "µg/mL"},
      {"measurement": "reduction of cfu", "setting": "[4]; 512 μg/ml, 37° C.", "value": "effective in reducing the number of cfu within four hours"},
      {"measurement": "killing or reducing S. aureus (MRSA) population", "setting": "[4]; room temperature, 0-8 hours, up to 512 μg/ml", "value": "no concentration of penicillin G assayed up to 512 μg/ml was effective"},
      {"measurement": "E. coli (EL744) K12 (tolC::kan) MIC", "setting": "[3]", "value": 16, "unit": "µg/mL"},
      {"measurement": "E. coli (K12) MIC", "setting": "E. coli (K12); MHII broth", "value": 32, "unit": "µg/mL"},
      {"measurement": "S. aureus ATCC 33592 MIC", "setting": "S. aureus ATCC 33592; MHII broth", "value": 64, "unit": "µg/mL"},
      {"measurement": "E. faecalis ATCC 51299 MIC", "setting": "E. faecalis ATCC 51299; BHI broth", "value": 0.5, "unit": "µg/mL"}
    ]},
    {"smiles": "CC[C@H]1OC(=O)[C@H](C)[C@@H](O[C@H]2C[C@@](C)(OC)[C@@H](O)[C@H](C)O2)[C@H](C)[C@@H](O[C@@H]2O[C@H](C)C[C@H](N(C)C)[C@H]2O)[C@](C)(O)C[C@@H](C)C(=O)[C@H](C)[C@@H](O)[C@]1(C)O", "note": "[Erythromycin]", "values": [
      {"measurement": "Kel elimination rate constant", "setting": "[5]", "value": 0.58, "unit": "h⁻¹"},
      {"measurement": "T1/2 half life time", "setting": "[5]", "value": 1.2, "unit": "h"}
    ]},
    {"smiles": "CN[C@H](CC(C)C)C(=O)N[C@H]1C(=O)N[C@@H](CC(N)=O)C(=O)N[C@H]2C(=O)N[C@H]3C(=O)N[C@H](C(=O)N[C@H](C(=O)O)c4cc(O)cc(O)c4-c4cc3ccc4O)[C@H](O)c3ccc(c(Cl)c3)Oc3cc2cc(c3O[C@@H]2O[C@H](CO)[C@@H](O)[C@H](O)[C@H]2O[C@H]2C[C@](C)(N)[C@H](O)[C@H](C)O2)Oc2ccc(cc2Cl)[C@H]1O", "note": "[Vancomycin, reference compound]", "values": [
      {"measurement": "MIC", "setting": "H. influenzae ATCC 49247; ATCC49247, read-out: H. influenzae ATCC 49247 MIC", "value": 128, "unit": "µg/mL"},
      {"measurement": "CL total clearance", "setting": "[5]", "value": 66, "unit": "mL/min"},
      {"measurement": "Kel elimination rate constant", "setting": "[5]", "value": 0.12, "unit": "h⁻¹"},
      {"measurement": "T1/2 half life time", "setting": "[5]", "value": 6, "unit": "h"},
      {"measurement": "VD volume of distribution", "setting": "[5]", "value": 0.47, "unit": "L/kg"},
      {"measurement": "MIC", "setting": "E. faecium SP180", "value": "> 128", "unit": "µg/mL"},
      {"measurement": "VRE (in vitro activity)", "setting": "[1]", "value": ">240"},
      {"measurement": "MRSA (in vitro activity)", "setting": "[2]", "value": "VANCOMYCIN <1.8"},
      {"measurement": "MIC", "setting": "[3]", "value": 128, "unit": "µg/mL"},
      {"measurement": "MIC", "setting": "E. coli (K12)", "value": 128, "unit": "µg/mL"},
      {"measurement": "RBC Hemolysis (HD50)", "setting": "murine red blood cells; Table 9", "value": ">240"},
      {"measurement": "MIC", "setting": "S. aureus ATCC 33592", "value": 0.5, "unit": "µg/mL"},
      {"measurement": "MIC", "setting": "E. faecalis ATCC 51299", "value": 32, "unit": "µg/mL"}
    ]}
  ]
}
